Experimental data taken from PubChem BioAssay (NCI).
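The concentration for 50% growth inhibition is given as GI50. TGI: total growth inhibition.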

Legend:
Experiment in all cases: NCI anticancer screen, dose series, 384-well format
[1] = tested on: T-47D breast
[2] = tested on: NCI/ADR-RES ovarian
[3] = tested on: NCI-H460 NSCLC
[4] = tested on: SN12C renal
[5] = tested on: HCT-116 colon
[6] = tested on: KM12 colon
[7] = tested on: HL-60(TB) leukemia
[8] = tested on: UACC-62 melanoma
[9] = tested on: SF-295 CNS
[10] = tested on: TK-10 renal
[11] = tested on: M14 melanoma
[12] = tested on: SNB-19 CNS
[13] = tested on: MOLT-4 leukemia
[14] = tested on: UO-31 renal
[15] = tested on: A549 NSCLC
[16] = tested on: U251 glioblastoma
[17] = tested on: NCI-H322M lung
[18] = tested on: MCF7 breast
[19] = tested on: OVCAR-8 ovarian
[20] = tested on: ACHN renal
[21] = tested on: HOP-92 NSCLC
[22] = tested on: MDA-MB-231 breast
[23] = tested on: HCT-15 colon
[24] = tested on: SK-MEL-5 melanoma
[25] = tested on: SF-539 CNS
[26] = tested on: SW-620 colon
[27] = tested on: HCC-2998 colon
[28] = tested on: MDA-MB-468 breast
[29] = tested on: K-562 leukemia
[30] = tested on: UACC-257 melanoma
[31] = tested on: 786-0 renal
[32] = tested on: PC-3 prostate
[33] = tested on: OVCAR-4 ovarian
[34] = tested on: MDA-MB-435 melanoma
[35] = tested on: OVCAR-3 ovarian
[36] = tested on: DU-145 prostate
[37] = tested on: NCI-H23 lung
[38] = tested on: NCI-H226 lung
[39] = tested on: CAKI-1 renal
[40] = tested on: LOX IMVI melanoma
[41] = tested on: HS 578T breast
[42] = tested on: OVCAR-5 ovarian
[43] = tested on: RXF 393 renal
[44] = tested on: COLO 205 colon
[45] = tested on: HOP-62 NSCLC
[46] = tested on: HT29 colon
[47] = tested on: SNB-75 CNS
[48] = tested on: CCRF-CEM leukemia
[49] = tested on: EKVX NSCLC
[50] = tested on: NCI-H522 lung
[51] = tested on: MALME-3M melanoma
[52] = tested on: SK-OV-3 ovarian
[53] = tested on: IGROV1 ovarian
[54] = tested on: BT-549 breast
[55] = tested on: SK-MEL-28 melanoma
[56] = tested on: A498 renal
[57] = tested on: RPMI-8226 leukemia
[58] = tested on: SF-268 CNS

Structure (SMILES): O=C(Nc1ccc(-c2ccnc(Nc3ccc(N4CCOCC4)cc3)n2)cc1)C1CCCN1 (stereo unspecified)
- GI50 [1]: 5.28 µM
- TGI [1]: 15.8 µM
- GI50 [2]: 7.15 µM
- TGI [2]: 21.9 µM
- GI50 [3]: 1.65 µM
- TGI [3]: 10.9 µM
- GI50 [4]: 3.6 µM
- TGI [4]: 17 µM
- GI50 [5]: 1.5 µM
- TGI [5]: 11.6 µM
- GI50 [6]: 8 µM
- TGI [6]: 21.1 µM
- GI50 [7]: 1.56 µM
- TGI [7]: 3.22 µM
- GI50 [8]: 3.1 µM
- TGI [8]: 16.8 µM
- GI50 [9]: 7.63 µM
- TGI [9]: 21.3 µM
- GI50 [10]: 2.78 µM
- TGI [10]: 19.2 µM
- GI50 [11]: 5.63 µM
- TGI [11]: 18.2 µM
- GI50 [12]: 11.4 µM
- TGI [12]: 26.6 µM
- GI50 [13]: 0.439 µM
- TGI [13]: 1.56 µM
- GI50 [14]: 3.96 µM
- TGI [14]: 15.8 µM
- GI50 [15]: 4.69 µM
- TGI [15]: 17.8 µM
- GI50 [16]: 3.9 µM
- TGI [16]: 17 µM
- GI50 [17]: 10.4 µM
- TGI [17]: 22.8 µM
- GI50 [18]: 4.63 µM
- TGI [18]: 17.6 µM
- GI50 [19]: 5.11 µM
- TGI [19]: 18.1 µM
- GI50 [20]: 4.76 µM
- TGI [20]: 17.6 µM
- GI50 [21]: 4.9 µM
- TGI [21]: 20.2 µM
- GI50 [22]: 0.87 µM
- TGI [22]: 17.3 µM
- GI50 [23]: 1.25 µM
- TGI [23]: 15 µM
- GI50 [24]: 0.687 µM
- TGI [24]: 14.2 µM
- GI50 [25]: 3.89 µM
- TGI [25]: 15.2 µM
- GI50 [26]: 5.25 µM
- TGI [26]: 16 µM
- GI50 [27]: 2.46 µM
- TGI [27]: 8.76 µM
- GI50 [28]: 2.02 µM
- TGI [28]: 8.28 µM
- GI50 [29]: 1.39 µM
- TGI [29]: 10.9 µM
- GI50 [30]: 2.46 µM
- TGI [30]: 5.49 µM
- GI50 [31]: 2.82 µM
- TGI [31]: 11.7 µM
- GI50 [32]: 5.86 µM
- TGI [32]: 19.7 µM
- GI50 [33]: 14.5 µM
- TGI [33]: 28.7 µM
- GI50 [34]: 7.37 µM
- TGI [34]: 19.8 µM
- GI50 [35]: 12.8 µM
- TGI [35]: 26.2 µM
- GI50 [36]: 4.54 µM
- TGI [36]: 15.4 µM
- GI50 [37]: 13.7 µM
- TGI [37]: 27.1 µM
- GI50 [38]: 1.24 µM
- TGI [38]: 10.6 µM
- GI50 [39]: 4.41 µM
- TGI [39]: 15.6 µM
- GI50 [40]: 1.74 µM
- TGI [40]: 7.69 µM
- GI50 [41]: 4.67 µM
- TGI [41]: 16.7 µM
- GI50 [42]: 12.4 µM
- TGI [42]: 25.6 µM
- GI50 [43]: 1.6 µM
- TGI [43]: 12.1 µM
- GI50 [44]: 2.68 µM
- TGI [44]: 17.4 µM
- GI50 [45]: 11.4 µM
- TGI [45]: 24.7 µM
- GI50 [46]: 2.22 µM
- TGI [46]: 10.8 µM
- GI50 [47]: 4.17 µM
- TGI [47]: 15.3 µM
- GI50 [48]: 1.79 µM
- TGI [48]: 10.1 µM
- GI50 [49]: 11.9 µM
- TGI [49]: 24.9 µM
- GI50 [50]: 2.88 µM
- TGI [50]: 6.72 µM
- GI50 [51]: 3.88 µM
- TGI [51]: 15.4 µM
- GI50 [52]: 3.29 µM
- TGI [52]: 16.5 µM
- GI50 [53]: 3.52 µM
- TGI [53]: 16.7 µM
- GI50 [54]: 3.78 µM
- TGI [54]: 14.1 µM
- GI50 [55]: 7.45 µM
- TGI [55]: 20.5 µM
- GI50 [56]: 6.48 µM
- TGI [56]: 18.9 µM
- GI50 [57]: 1.29 µM
- TGI [57]: 10.5 µM
- GI50 [58]: 0.204 µM
- TGI [58]: 0.857 µM
